Assay results: EPA's ToxRefDB 2

Assays:
rat [1] = conditions: Subchronic oral toxicity in rodents, fischer, Feed, dose end: 14 week, group: systemic
mouse [2] = conditions: Subchronic oral toxicity in rodents, b6c3f1, Feed, dose end: 14 week, group: systemic
mouse [3] = conditions: Carcinogenicity; b6c3f1; Oral; Gavage/Intubation; dose end: 90 week; group: systemic; systemic / pathology microscopic / liver / carcinoma + systemic / in life observation / clinical signs / alopecia + systemic / in life …
rat [4] = conditions: Carcinogenicity; other; Oral; Gavage/Intubation; dose end: 113 week; group: systemic; systemic / in life observation / body weight / body weight gain + systemic / in life observation / clinical signs / nasal discharge + …
mouse [5] = conditions: Combined chronic toxicity/carcinogenicity, cd1, Oral, Diet, dose end: 104 week, group: systemic
mouse [6] = conditions: Carcinogenicity, cd1, Oral, Diet, dose end: 85 week, group: systemic
rat [7] = conditions: Multigenerational reproductive toxicity study, other, Oral, Feed, dose end: 2 generation
dog [8] = conditions: Chronic toxicity, beagle, Oral, Capsule, dose end: 52 week, group: systemic
rat [9] = conditions: Combined chronic toxicity/carcinogenicity, wistar, Oral, Feed, dose end: 103 week, group: systemic
rabbit = conditions: Prenatal developmental toxicity study, new zealand white, Oral, Gavage/Intubation, dose end: 18 GD
rat [10] = conditions: Multigenerational reproductive toxicity study, sprague dawley, Oral, Feed, dose end: 3 generation
rat [11] = conditions: Prenatal developmental toxicity study, other, Oral, Gavage/Intubation, dose end: 15 GD
dog [12] = conditions: Chronic toxicity; beagle; Oral; Capsule; dose end: 33 week; group: systemic; systemic / hematology / hematocrit (hct) / hematocrit (hct) + systemic / hematology / hemoglobin (hgb) / hemoglobin (hgb) + systemic / organ…
rat [13] = conditions: Chronic toxicity; other; Oral; Feed; dose end: 26 week; group: systemic; systemic / in life observation / body weight / body weight gain + systemic / in life observation / food consumption / food consumption + …
dog [14] = conditions: Sub-acute repeat dose toxicity; beagle; Injection; Intravenous; dose end: 1 month; group: systemic; systemic / hematology / erythrocyte (rbc) count differential / erythrocyte (rbc) + systemic / hematology / hematocrit (hct) / hematocrit (…
rat [15] = conditions: Developmental neurotoxicity study, sprague dawley, Inhalation, Whole-Body, dose end: 63 PND, group: cannot be grouped
rat [16] = conditions: Developmental neurotoxicity study; wistar; Inhalation; Whole-Body; dose end: 98 PND; group: cannot be grouped; systemic / in life observation / body weight / offspring (pup) weight
rat [17] = conditions: Developmental neurotoxicity study, wistar, Inhalation, Whole-Body, dose end: 81 PND, group: cannot be grouped
rat [18] = conditions: Developmental neurotoxicity study; sprague dawley; Inhalation; Whole-Body; dose end: 21 PND; group: cannot be grouped; developmental / developmental malformation / general / [other] + systemic / in life observation / body weight / offspring (pup) weight + …
mouse [19] = conditions: Developmental neurotoxicity study; cd1; Inhalation; Whole-Body; dose end: 20 PND; group: cannot be grouped; systemic / in life observation / body weight / offspring (pup) weight gain + systemic / in life observation / clinical signs / grip strength
rat [20] = conditions: Developmental neurotoxicity study; wistar; Inhalation; Whole-Body; dose end: 119 PND; group: cannot be grouped; systemic / in life observation / body weight / offspring (pup) weight
[21] = systemic / pathology microscopic / liver / vacuolization cytoplasmic + systemic / organ weight / liver / nos + systemic / pathology gross…
[22] = systemic / organ weight / liver / absolute + systemic / organ weight / liver / relative to body weight + systemic / pathology gross / liver…
[23] = systemic / organ weight / liver / absolute + systemic / organ weight / liver / relative to body weight + systemic / pathology microscopic / …
[24] = systemic / in life observation / mortality / mortality + systemic / pathology microscopic / adrenal gland / amyloid deposition + systemic / …
[25] = group: offspring, developmental / offspring survival late / viability index / viability index + systemic / in life observation / body weight / offspring (pup…
[26] = group: offspring, systemic / in life observation / body weight / offspring (pup) weight + systemic / in life observation / body weight / offspring (pup) …
[27] = group: parental, systemic / in life observation / body weight / body weight gain
[28] = group: parental, systemic / in life observation / body weight / body weight gain + systemic / in life observation / body weight / body weight + systemic / in…
[29] = group: reproductive, reproductive / reproductive performance / mating / mating
[30] = systemic / in life observation / body weight / body weight gain + systemic / in life observation / food consumption / food consumption + …
[31] = systemic / organ weight / spleen / nos + systemic / organ weight / spleen / relative to body weight
[32] = group: developmental, developmental / developmental malformation / bone / fused + developmental / developmental malformation / bone / supernumerary
[33] = group: maternal, reproductive / reproductive performance / resorptions / resorptions
[34] = group: offspring, systemic / in life observation / body weight / offspring (pup) weight
[35] = group: parental, systemic / in life observation / body weight / body weight
[36] = group: reproductive, reproductive / offspring survival early / birth index / live birth index
[37] = group: developmental, developmental / developmental malformation / bone / [other] + developmental / developmental malformation / bone / delayed ossification + …
[38] = group: maternal, systemic / in life observation / body weight / body weight + systemic / in life observation / body weight / body weight gain + systemic / in…
[39] = systemic / in life observation / body weight / body weight gain + systemic / in life observation / clinical signs / motor activity
[40] = systemic / in life observation / body weight / body weight gain + systemic / in life observation / clinical signs / motor activity + …
[41] = systemic / in life observation / body weight / body weight + systemic / in life observation / body weight / body weight gain + developmental…

SMILES: ClC(Cl)C(Cl)Cl [1,1,2,2-Tetrachloroethane]
- LOAEL (rat [1]; systemic / in life observation / body weight / body weight gain + systemic / pathology microscopic / liver / vacuolization cytoplasmic): 40 mg/kg/day
- NOAEL (rat [1]; systemic / in life observation / body weight / body weight gain + systemic / pathology microscopic / liver / vacuolization cytoplasmic + …): 20 mg/kg/day
- LEL (rat [1]; [21]): 20 mg/kg/day
- NEL (rat [1]; [21]): < 20 mg/kg/day
- LEL (mouse [2]; [22]): 80 mg/kg/day
- NEL (mouse [2]; [22]): < 80 mg/kg/day
- LOAEL (mouse [2]; [23]): 160 mg/kg/day
- NOAEL (mouse [2]; [23]): 80 mg/kg/day
- LEL (mouse [3]): 142 mg/kg/day
- LOAEL (mouse [3]): > 284 mg/kg/day
- NEL (mouse [3]): < 142 mg/kg/day
- NOAEL (mouse [3]): ≥ 284 mg/kg/day
- LEL (rat [4]): 43 mg/kg/day
- LOAEL (rat [4]): > 76 mg/kg/day
- NEL (rat [4]): < 43 mg/kg/day
- NOAEL (rat [4]): ≥ 76 mg/kg/day

SMILES: CC(C)=CC1C(C(=O)OCc2coc(Cc3ccccc3)c2)C1(C)C (stereo not drawn) [Resmethrin]
- LOAEL (mouse [5]; systemic / in life observation / mortality / mortality): 84.3 mg/kg/day
- NOAEL (mouse [5]; systemic / in life observation / mortality / mortality + systemic / pathology microscopic / liver / adenoma/carcinoma combined + systemic / …): 43.4 mg/kg/day
- LEL (mouse [5]; [23]): 43.4 mg/kg/day
- NEL (mouse [5]; [23]): < 43.4 mg/kg/day
- LOAEL (mouse [6]; [24]): 138 mg/kg/day
- NEL (mouse [6]; [24]): 36.3 mg/kg/day
- NOAEL (mouse [6]; [24]): 71.3 mg/kg/day
- LEL (mouse [6]; systemic / organ weight / adrenal gland / absolute + systemic / organ weight / adrenal gland / relative to body weight + systemic / organ …): 71.3 mg/kg/day
- LOAEL (rat [7]; [25]): 70.8 mg/kg/day
- NOAEL (rat [7]; [25]): 34.8 mg/kg/day
- LEL (rat [7]; [26]): 34.8 mg/kg/day
- NEL (rat [7]; [26]): 17.4 mg/kg/day
- NEL (rat [7]; [27]): 34.8 mg/kg/day
- NOAEL (rat [7]; [27]): 34.8 mg/kg/day
- LEL (rat [7]; [28]): 70.8 mg/kg/day
- LOAEL (rat [7]; [28]): 70.8 mg/kg/day
- LEL (rat [7]; [29]): 70.8 mg/kg/day
- LOAEL (rat [7]; [29]): 70.8 mg/kg/day
- NEL (rat [7]; [29]): 34.8 mg/kg/day
- NOAEL (rat [7]; [29]): 34.8 mg/kg/day
- NEL (dog [8]; [30]): 108 mg/kg/day
- NOAEL (dog [8]; [30]): 108 mg/kg/day
- LOAEL (dog [8]; systemic / in life observation / body weight / body weight gain + systemic / pathology microscopic / eye / cataract, subcapsular): 430 mg/kg/day
- LEL (dog [8]; systemic / in life observation / body weight / body weight gain + systemic / pathology microscopic / eye / cataract, subcapsular + systemic…): 430 mg/kg/day
- LOAEL (rat [9]; systemic / organ weight / liver / absolute + systemic / in life observation / body weight / body weight + systemic / in life observation / …): 233 mg/kg/day
- NOAEL (rat [9]; systemic / organ weight / liver / absolute + systemic / organ weight / liver / relative to body weight + systemic / organ weight / spleen / …): 47 mg/kg/day
- LEL (rat [9]; [31]): 47 mg/kg/day
- NEL (rat [9]; [31]): < 47 mg/kg/day
- LEL (rabbit; [32]): 100 mg/kg/day
- LOAEL (rabbit; [32]): 100 mg/kg/day
- NEL (rabbit; [32]): 30 mg/kg/day
- NOAEL (rabbit; [32]): 30 mg/kg/day
- LEL (rabbit; [33]): 100 mg/kg/day
- LOAEL (rabbit; [33]): 100 mg/kg/day
- NEL (rabbit; [33]): 30 mg/kg/day
- NOAEL (rabbit; [33]): 30 mg/kg/day
- LEL (rat [10]; [34]): 25 mg/kg/day
- LOAEL (rat [10]; [34]): 25 mg/kg/day
- NEL (rat [10]; [34]): < 25 mg/kg/day
- NOAEL (rat [10]; [34]): < 25 mg/kg/day
- LEL (rat [10]; [35]): 40 mg/kg/day
- LOAEL (rat [10]; [35]): 40 mg/kg/day
- NEL (rat [10]; [35]): 25 mg/kg/day
- NOAEL (rat [10]; [35]): 25 mg/kg/day
- LEL (rat [10]; [36]): 40 mg/kg/day
- LOAEL (rat [10]; [36]): > 62.5 mg/kg/day
- NEL (rat [10]; [36]): 25 mg/kg/day
- NOAEL (rat [10]; [36]): ≥ 62.5 mg/kg/day
- LEL (rat [11]; [37]): 80 mg/kg/day
- LOAEL (rat [11]; [37]): 80 mg/kg/day
- NEL (rat [11]; [37]): 40 mg/kg/day
- NOAEL (rat [11]; [37]): 40 mg/kg/day
- LEL (rat [11]; [38]): 80 mg/kg/day
- LOAEL (rat [11]; [38]): 80 mg/kg/day
- NEL (rat [11]; [38]): 40 mg/kg/day
- NOAEL (rat [11]; [38]): 40 mg/kg/day

SMILES: CN(C)[C@@H]1C(=O)C(C(N)=O)=C(O)[C@@]2(O)C(=O)C3=C(O)c4c(O)cccc4[C@@](C)(O)[C@H]3C[C@@H]12 [Tetracycline]
- LEL (dog [12]): 500 mg/kg/day
- LOAEL (dog [12]): > 500 mg/kg/day
- NEL (dog [12]): 250 mg/kg/day
- NOAEL (dog [12]): ≥ 500 mg/kg/day
- LEL (rat [13]): 125 mg/kg/day
- LOAEL (rat [13]): > 500 mg/kg/day
- NEL (rat [13]): < 125 mg/kg/day
- NOAEL (rat [13]): ≥ 500 mg/kg/day
- LEL (dog [14]): 40 mg/kg/day
- LOAEL (dog [14]): > 40 mg/kg/day
- NEL (dog [14]): < 40 mg/kg/day
- NOAEL (dog [14]): ≥ 40 mg/kg/day

SMILES: Cc1ccccc1 [Toluene]
- LEL (rat [15]; [39]): 8000 ppm
- NEL (rat [15]; [39]): < 8000 ppm
- LOAEL (rat [15]; [40]): > 12000 ppm
- NOAEL (rat [15]; [40]): ≥ 12000 ppm
- LEL (rat [16]): 1800 ppm
- LOAEL (rat [16]): > 1800 ppm
- NEL (rat [16]): < 1800 ppm
- NOAEL (rat [16]): ≥ 1800 ppm
- NEL (rat [17]; systemic / in life observation / body weight / body weight + systemic / in life observation / body weight / body weight gain): 600 ppm
- LEL (rat [17]; [41]): 1000 ppm
- LOAEL (rat [17]; [41]): > 1200 ppm
- NOAEL (rat [17]; [41]): ≥ 1200 ppm
- LEL (rat [18]): 12000 ppm
- LOAEL (rat [18]): > 12000 ppm
- NEL (rat [18]): 8000 ppm
- NOAEL (rat [18]): ≥ 12000 ppm
- LEL (mouse [19]): 2000 ppm
- LOAEL (mouse [19]): > 2000 ppm
- NEL (mouse [19]): 400 ppm
- NOAEL (mouse [19]): ≥ 2000 ppm
- LEL (rat [20]): 1200 ppm
- LOAEL (rat [20]): > 1200 ppm
- NEL (rat [20]): < 1200 ppm
- NOAEL (rat [20]): ≥ 1200 ppm
